# In PubChem BioAssay (NCI):
#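 Five compound concentrations were applied to cells in 96-well plates for 48 hours; endpoints were derived by simple linear interpolation of the resulting dose-response curve. Here, GI50 denotes the concentration required for 50% inhibition of growth. TGI: total growth inhibition.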
# What was measured:
# Assay in all cases: NCI anticancer screen, dose series, 48 h
# [1] = test system: CAKI-1 renal
# [2] = test system: SF-268 CNS
# [3] = test system: HCT-116 colon
# [4] = test system: RXF 393 renal
# [5] = test system: UACC-257 melanoma
# [6] = test system: 786-0 renal
# [7] = test system: RPMI-8226 leukemia
# [8] = test system: KM12 colon
# [9] = test system: OVCAR-3 ovarian
# [10] = test system: MDA-MB-435
Compound,GI50 [1] [µM],TGI [1] [µM],GI50 [2] [µM],TGI [2] [µM],GI50 [3] [µM],TGI [3] [µM],GI50 [4] [µM],TGI [4] [µM],GI50 [5] [µM],TGI [5] [µM],GI50 [6] [µM],TGI [6] [µM],GI50 [7] [µM],TGI [7] [µM],GI50 [8] [µM],TGI [8] [µM],GI50 [9] [µM],TGI [9] [µM],GI50 [10] [µM],TGI [10] [µM]
CC(=O)[CH-]C(=O)c1ccccc1.CC(=O)[CH-]C(=O)c1ccccc1.CC(=O)[CH-]C(=O)c1ccccc1.[Tl+3],75,> 100,29.3,> 100,28.2,> 100,56.2,> 100,26.3,82.7,49.2,> 100,11.1,> 100,42.8,> 100,24.1,> 75.5,–,–
COc1ccc2c([nH]c3cc(O)c(C)cc32)c1C=O,–,–,–,> 25,–,> 25,–,> 25,–,–,–,> 25,–,> 25,–,> 25,–,> 25,–,–
C=C1C[C@@H]2C/C=C/C(=O)C/C(C)=C\C=C\C(=O)O[C@H](C=O)C/C(C)=C/[C@H](C1)O2,4.71,26,1.39,19.6,0.37,3.86,–,–,14.1,34.7,0.783,18.3,0.295,3.29,1.17,12.2,0.557,24.4,0.316,> 100
CN(C)CC(/C(Cc1ccccc1)=N\NC(=O)c1ccncc1)c1ccccc1 (stereo not given),–,> 100,–,> 100,–,–,–,> 100,–,> 100,–,> 100,–,51.6,–,–,–,> 100,–,–
S=c1nc(Oc2ccc(Cl)c(Cl)c2)[nH]c(=S)[nH]1,–,> 100,–,> 81.8,–,> 60.9,–,–,–,> 80,–,> 100,–,51.5,–,33.6,–,> 100,–,> 100
Nc1nc(Nc2ccc3c(c2)CC[C@@H](N2CCCC2)CC3)nn1-c1cc2c(nn1)-c1ccccc1CCC2,1.22,2.5,1.44,3.26,1.5,3.08,–,–,1.89,3.66,1.55,3.28,–,–,1.83,3.71,1.74,3.36,1.69,3.1
Nc1ccccc1/C=C\c1ccccc1,–,–,–,> 100,–,> 100,–,> 100,–,> 100,–,> 100,–,> 100,–,> 100,–,> 100,–,> 100
O=C1C(Cl)=C(Oc2ccc([N+](=O)[O-])cc2)C(=O)c2c(O)ccc(O)c21,–,–,–,> 100,–,> 100,–,52.5,–,> 100,–,> 100,–,> 60.1,–,> 100,–,> 100,–,> 67.8
C1CNCCNCCNCCN1,–,–,–,–,–,> 100,–,> 100,–,> 100,–,> 100,–,> 100,–,> 100,–,> 100,–,–
O=C1CCCCCCCCCCC(=O)C2CCOCCOCCOCCC1Cc1cccc(n1)C2,–,> 100,–,> 100,–,> 100,–,> 100,–,> 100,–,> 100,–,> 100,–,> 100,–,> 100,–,–
O=C(NC1CC1)c1ccc(-c2nc3ccc4[nH]ncc4c3c3c2CCCC3)cc1,–,–,1.87,14,1.34,14,0.967,4.03,9.1,34.7,2.11,12.3,1.08,12,1.51,9.65,4.04,15.8,1.38,5.02
N/N=C(\CC1OC(=O)c2ccccc21)c1ccco1 (stereo not given),–,> 100,–,> 100,–,> 100,–,> 100,–,> 100,–,0.164,–,–,–,> 100,–,> 100,–,–
Cc1cccc(C)c1NC(=O)CCCC(=O)CC(=O)/C=C/c1ccccc1,–,> 100,–,> 100,–,> 100,–,> 100,–,> 100,–,> 100,–,> 100,–,> 100,–,> 100,–,–
O=C(CNC(=O)OCc1ccccc1)Oc1ccccc1,–,–,–,> 100,–,> 100,–,> 100,–,> 100,–,> 100,–,> 100,–,> 100,–,> 100,–,–
FC(F)(F)c1cccc(COCCN2CCN(Cc3cccc(C(F)(F)F)c3)CC2)c1,–,31.3,–,30.3,–,34.9,–,–,–,35.5,–,29.5,–,–,–,35.8,–,42.9,–,–
CCOc1cc2c(cnc3c4cc(OC)c(OC)cc4ccc23)cc1OC,–,> 100,–,> 100,–,> 100,–,–,–,> 100,–,> 100,–,> 100,–,> 100,–,> 100,–,–
O=C(Nc1ccc(-n2cc(-c3ccncc3)c(-c3ccc(Cl)c(O)c3)n2)cc1)Nc1cc(C(F)(F)F)cc(C(F)(F)F)c1,1.77,3.57,1.62,3.27,1.61,3.14,1.45,3.45,2.01,5.22,1.8,3.72,–,–,1.6,3.15,1.52,2.89,1.77,3.45
COC(=O)NC/C=C\c1nc(CC/C=C\C(=O)OC2CC3CC(=O)O[C@H](/C=C/CC(C)C)C[C@H]4CCC(C)C(C[C@H](OC)CC(C2)O3)O4)co1 (stereo not given in full),< 0.01,41.1,< 0.01,24.3,< 0.01,37.5,–,–,> 100,> 100,< 0.01,> 100,–,–,4.25,> 100,–,–,–,–
COc1ccc2c(c1)nc(N)c1c3cc(OC)c(OC)cc3cn21,–,19.8,–,17.5,< 0.01,13.7,–,–,11.4,27.2,0.205,11.9,0.0968,12.8,0.014,12.7,–,–,< 0.01,–
